Data reported in patent US9295651B2, “Nanoconjugates and nanoconjugate formulations” (priority 2009, dated 2016).

Columns and labels:
[1] = Lyophilization of PLGA-mPEG NPs in the presence of lyoprotectants, reconstitution with water, DLS; type: physicochemical; parameters: key to Aggr. (visible large aggregates): Y = aggregates observed; N = no aggregates observed; settings: for Size in nm: PLGA-mPEG NPs lyophilized and reconstituted; for prevention of NP aggregation during lyophilization (in words): PLGA-mPEG5k NPs, lyoprotectant/NP mass ratio up to 10
Experimental: Lyophilization of PLGA-mPEG NPs in the presence of lyoprotectants. An acetone solution of PLGA-mPEG (5 mg/mL, 100 μL) was added dropwise into a vigorously stirred water solution (4 mL) containing the NCs to make the PLGA-mPEG NPs. A lyoprotectant was added to the vigorously stirred NC solution at the selected lyoprotectant/NC mass ratio (varying from 2 to 20). The solution was then lyophilized, reconstituted with 2 mL water and stirred for 5 minutes. The sizes of the resulting NCs were analyzed by DLS.

LLC tumors = assay: Tumor prevention/inhibition study, LLC cells co-injected subcutaneously with test article; type: in vivo, C57B1/6 female mice; settings: at 25 days, 5 mg/kg in 1:1 Cremophor EL/ethanol
Experimental: To access the ability of paclitaxel-loaded nanoparticles to inhibit establishment of lung cancer in an in vivo model mimicking microscopic disease that can remain when the surgical margin is close to the tumor, Ptxl-PLA NCs were evaluated in a rapidly growing subcutaneous tumor model. Specifically, the ability of Ptxl-PLA NCs to prevent establishment of rapidly growing LLC tumors in C57B1/6 female mice compared to Ptxl alone (in a clinical formulation) and controls without any drugs was assessed. In these experiments, 1,000,000 LLC tumor cells plus Ptxl-LA25/PLGA-mPEG nanoparticles containing a total dose of 5 or 50 mg/kg incorporated Ptxl were injected subcutaneously into the flank of a mouse. Other groups received the injection of 1,000,000 LLC cells alone or LLC cells mixed with Ptxl solubilized with 1:1 Cremophor EL/ethanol as used clinically at 5 mg/kg dosage.

Size in nm ([1]; lyoprotectant/NP mass ratio 2) [nm]	Size in nm ([1]; lyoprotectant/NP mass ratio 10) [nm]	Aggr. (visible large aggregates) ([1]; lyoprotectant/NP mass ratio 2)	Aggr. (visible large aggregates) ([1]; lyoprotectant/NP mass ratio 10)	Distr. No. (number of particle size distributions) ([1]; lyoprotectant/NP mass ratio 10)	PDI ([1]; lyoprotectant/NP mass ratio 10)	SL/SO (ratio of lyophilized NP size to pre-lyophilized NP size) ([1]; lyoprotectant/NP mass ratio 10)	prevention of NP aggregation during lyophilization (in words) [1]	Distr. No. (number of particle size distributions) ([1]; lyoprotectant/NP mass ratio 2)	PDI ([1]; lyoprotectant/NP mass ratio 2)	SL/SO (ratio of lyophilized NP size to pre-lyophilized NP size) ([1]; lyoprotectant/NP mass ratio 2)	Structure (SMILES)	tumors at injection site (LLC tumors)
>1000	220.4	Y	Y	2	0.288	3.54	–	–	–	–	OC[C@H]1O[C@H](O[C@H]2[C@H](O)[C@@H](O)C(O)O[C@@H]2CO)[C@H](O)[C@@H](O)[C@@H]1O (mixture of isomers) [Maltose]	–
–	>1000	–	Y	–	–	–	could not prevent NP aggregation at all	–	–	–	O=C[C@H](O)[C@@H](O)[C@@H](O)[C@H](O)CO [Galactose]	–
–	>1000	–	Y	–	–	–	unable to prevent NP aggregation	–	–	–	NCC(=O)O [Glycine]	–
–	>1000	–	Y	–	–	–	unable to prevent NP aggregation	–	–	–	CCCCCCCCCCCCOS(=O)(=O)[O-].[Na+] [SDS, sodium dodecyl sulfate]	–
>1000	764.8	Y	Y	2	0.299	12.28	–	–	–	–	OC[C@@H](O)[C@@H](O)[C@H](O)[C@@H](O)CO [Sorbitol]	–
245.2	217.5	Y	Y	2	0.220	3.49	–	2	0.227	3.93	OC[C@H]1O[C@@](CO)(O[C@H]2O[C@H](CO)[C@@H](O)[C@H](O)[C@H]2O)[C@@H](O)[C@@H]1O [Sucrose]	–
–	–	–	–	–	–	–	–	–	–	–	CC(=O)O[C@H]1C(=O)[C@@]2(C)[C@H]([C@H](OC(=O)c3ccccc3)[C@]3(O)C[C@H](OC(=O)[C@H](O)[C@@H](NC(=O)c4ccccc4)c4ccccc4)C(C)=C1C3(C)C)[C@]1(OC(C)=O)CO[C@@H]1C[C@@H]2O [paclitaxel]	large tumors were noted
